Reference: US5585385A, “Heterocyclic compounds, their production and use as tachykinin reactor antagonists” (Takeda Chemical Industries, Ltd., priority 1993, dated 1996)

Target: T1, substance P receptor (Homo sapiens, UniProt P25103)
T1 construct: The receptor was prepared from human lymphoblast cells (IM-9); endogenous in cells; host or cells: IM-9 human lymphoblast cells (crude membrane preparation)
Assay: Radioligand receptor binding inhibitory activity using receptor from human lymphoblast cells (IM-9), 125I-BHSP
Details: human IM-9 cell receptor, 25° C., 30 minutes, pH 7.4, n=1
Protocol: Radioligand receptor binding inhibitory activity
Binding inhibitory activity using receptor from human lymphoblast cells (IM-9)
The method of A. Margaret "Molecular Pharmacology 42, p.458 (1992)" was modified and used. The receptor was prepared from human lymphoblast cells (IM-9). IM-9 cells (2×10^5 cells/ml) were inoculated and incubated for 3 days (one liter), which was then subjected to centrifuge for 5 minutes at 500×g to obtain cell pellets. The pellets were washed once with phosphate buffer (Flow Laboratories, CAT. No. 28-103-05), which were then crushed using Polytron.homogenizer "Kinematika, Germany" in 30 ml of 50 mM Tris-HCl buffer (pH 7.4) containing 120 mM sodium chloride, 5 mM potassium chloride, 2 μg/ml chymostatin, 40 μg/ml bacitracin, 5 μg/ml phosphoramidon, 0.5 mM phenylmethyl sulfonyl fluoride, 1 mM ethylenediamine tetra-acetic acid, which was subjected to centrifuge at 40,000×g for 20 minutes. The residue was washed twice with 30 ml of the above-mentioned buffer, which was then preserved frozen (-80° C.) as a specimen of the receptor.
The specimen was suspended in a reaction buffer (50 mM Tri-HCl buffer (pH 7.4), 0.02% bovine serum albumin, 1 mM phenylmethylsulfonyl fluoride, 2 μg/chymostatin, 40 μg/ml bacitracin, 3 mM manganese chloride) and 100 ul portion was the suspension was used in the reaction. After addition of the sample and ^125 I-BHSP (0.46 KBq), the reaction was allowed to proceed in 0.2 ml of reaction buffer at 25° C. for 30 minutes. The amount of nonspecific binding was determined by adding substance P at a final concentration of 2×10^-6 M. After the reaction, using a cell harvester (290 PHD, Cambridge Technology, Inc, U.S.A.), rapid filtration was carried out through a glass filter (GF/B, Whatman, U.S.A.) to stop the reaction. After washing three times with 250 ul of 50 mM of Tris-HCl buffer (pH 7.4) containing 0.02% bovine serum albumin, the radioactivity remaining on the filter was determined with a gamma counter. Before use, the filter was immersed in 0.1% polyethyleneimine for 24 hours and air-dried. […] (Radioligand means substance P labelled with ^125 I.) The number of this experiment is one.

T1 sequence (P25103 whole entry): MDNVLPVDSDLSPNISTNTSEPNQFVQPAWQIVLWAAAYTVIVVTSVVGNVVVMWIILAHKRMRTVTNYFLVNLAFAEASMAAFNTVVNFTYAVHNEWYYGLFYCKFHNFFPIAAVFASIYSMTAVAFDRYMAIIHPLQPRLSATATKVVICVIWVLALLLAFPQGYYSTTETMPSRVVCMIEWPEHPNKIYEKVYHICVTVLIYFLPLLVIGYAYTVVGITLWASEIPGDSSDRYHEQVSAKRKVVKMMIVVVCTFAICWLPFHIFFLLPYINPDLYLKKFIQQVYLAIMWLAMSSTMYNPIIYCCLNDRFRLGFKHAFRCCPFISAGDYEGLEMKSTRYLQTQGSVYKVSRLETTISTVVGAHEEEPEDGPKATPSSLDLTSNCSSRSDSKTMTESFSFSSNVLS

Row | Molecule | IC50 [nM]
1 | CN(Cc1cc(C(F)(F)F)cc(C(F)(F)F)c1)C(=O)c1c(-c2ccc(F)cc2)c2cc(Cl)cnc2c(=O)n1C [Example 6, N-[3,5-Bis(trifluoromethyl)benzyl]-3-chloro-5-(4-fluorophenyl)-7,8-dihydro-N, 7-dimethyl-8-oxo-6-pyrido[3,4-b]pyridinecarboxamide] | 1.1
2 | Cc1ccccc1-c1c(C(=O)N(C)Cc2cc(C(F)(F)F)cc(C(F)(F)F)c2)n(C)c(=O)c2cccnc12 [Example 10, N-[3,5-Bis(trifluoromethyl)benzyl]-5,6-dihydro-N, 6-dimethyl-8-(2-methylphenyl)-5-oxo-7-pyrido[4,3-b]pyridinecarboxamide] | 33
3 | CN(Cc1cc(C(F)(F)F)cc(C(F)(F)F)c1)C(=O)c1c(-c2ccc(F)cc2)c2cscc2c(=O)n1C [Example 18, N-[3,5-Bis(trifluoromethyl)benzyl]-7-(4-fluorophenyl)-4,5-dihydro-N, 5-dimethyl-4-oxo-6-thieno[3,4-c]pyridine carboxamide] | 0.36
4 | CN(Cc1cc(C(F)(F)F)cc(C(F)(F)F)c1)C(=O)c1c(-c2ccc(F)cc2)c2ncccc2c(=O)n1C [Example 19, N-[3,5-Bis(trifluoromethyl)benzyl]-8-(4-fluorophenyl)-5,6-dihydro-N, 6-dimethyl-5-oxo-7-pyrido[4,3-b]pyridine carboxamide] | 0.94
5 | CN(Cc1cc(C(F)(F)F)cc(C(F)(F)F)c1)C(=O)c1cnc2sccc2c1-c1ccc(F)cc1 [Example 24, N[3,5-Bis(trifluoromethyl)benzyl]-4-(4-fluorophenyl)-N-methyl-5-thieno[2,3-b]pyridinecarboxamide] | 0.2
6 | CN(Cc1cc(C(F)(F)F)cc(C(F)(F)F)c1)C(=O)c1c(-c2ccc(F)cc2)c2c(c(=O)n1C)N(C)CCC2 [Example 30, N-[3,5-Bis(trifluoromethyl)benzyl]-5-(4-fluorophenyl)-1,2,3,4,7,8-hexahydro-N, 1,7-trimethyl-8-oxo-6-pyrido [3,4-b]pyridinecarboxamide] | 0.1
7 | CN(Cc1cc(C(F)(F)F)cc(C(F)(F)F)c1)C(=O)c1c(-c2ccc(F)cc2)c2cc[n+](C)cc2c(=O)n1C [Example 31, 3-[N-[3,5-Bis(trifluoromethyl)benzyl]-N-methylaminocarbonyl]-4-(4-fluorophenyl)-1,2-dihydro-2,7-dimethyl-1-oxopyrido[3,4-c]pyridinium iodide] | 0.33
8 | CN(Cc1cc(C(F)(F)F)cc(C(F)(F)F)c1)C(=O)c1c(-c2ccccc2)c2scnc2c(=O)n1C [Example 43, N-[3,5-Bis(trifluoromethyl)benzyl]-4,5-dihydro-N, 5-dimethyl-4-oxo-7-phenyl-6-thiazolo[4,5-c]pyridinecarboxamide] | 1
9 | CN(Cc1cc(C(F)(F)F)cc(C(F)(F)F)c1)C(=O)c1c(-c2ccccc2)c2ccsc2c(=O)n1C [Example 44, N-[3,5-bis(trifluoromethyl)benzyl]-6,7-dihydro-N, 6-dimethyl-7-oxo-4-phenyl-5-thieno[2,3-c]pyridinecarboxamide] | 0.24
10 | COc1ccccc1CN(C)C(=O)c1c(-c2ccccc2)c2ccsc2c(=O)n1C [Example 46, 6,7-Dihydro-N-(2-methoxybenzyl)-N, 6-dimethyl-7-oxo-4-phenyl-5-thieno[2,3-c]pyridinecarboxamide] | 26
11 | Cc1ccccc1-c1c(C(=O)N(C)Cc2cc(C(F)(F)F)cc(C(F)(F)F)c2)n(C)c(=O)c2sccc12 [Example 47, N-[3,5-Bis(trifluoromethyl)benzyl]-6,7-dihydro-N, 6-dimethyl-4-(2-methylphenyl)-7-oxo-5-thieno[2,3-c]pyridinecarboxamide] | 0.2
12 | CN(Cc1cc(C(F)(F)F)cc(C(F)(F)F)c1)C(=O)c1c(-c2ccccc2)c2c(c(=O)n1C)CCCN2 [Example 51] | 2.1

More lines, in order of falling IC50, values ahead:

Row | IC50 [nM] | Molecule
13 | 16 | CN(Cc1cc(C(F)(F)F)cc(C(F)(F)F)c1)C(=O)c1c(-c2ccc(F)cc2)c2c[n+](C)ccc2c(=O)n1C [Example 33, 3-[N-[3,5-Bis(trifluoromethyl)benzyl]-N-methylaminocarbonyl]-4-(4-fluorophenyl)-1,2-dihydro-2,6-dimethyl-1-oxopyrido[4,3-c]pyridinium iodide]
14 | 14 | COc1ccccc1CNC(=O)c1c(-c2ccc(F)cc2)c2cccnc2c(=O)n1C [Example 3, 5-(4-Fluorophenyl)-7,8-dihydro-N-(2-methoxybenzyl)-7-methyl-8-oxo-6-pyrido[3,4-b]pyridinecarboxamide]
15 | 5 | CN(Cc1cc(C(F)(F)F)cc(C(F)(F)F)c1)C(=O)c1c(-c2ccc(F)cc2)c2c(c(=O)n1C)CCCN2C [Example 28, N-[3,5-Bis(trifluoromethyl)benzyl]-8-(4-fluorophenyl)-1,2,3,4,5,6-hexahydro-N, 1,6-trimethyl-5-oxo-7-pyrido [4,3-b]pyridinecarboxamide]
16 | 2.8 | CN(Cc1cc(C(F)(F)F)cc(C(F)(F)F)c1)C(=O)c1cnc2ccccc2c1-c1ccccn1 [Example 12, N-[3,5-Bis(trifluoromethyl)benzyl]-N-methyl-4-(2-pyridyl)-3-quinolinecarboxamide]
17 | 2.5 | COc1ccccc1CN(C)C(=O)c1c(-c2ccc(F)cc2)c2cccnc2c(=O)n1C [Example 4, 5-(4-Fluorophenyl)-7,8-dihydro-N-(2-methoxybenzyl)-N,7-dimethyl-8-oxo-6-pyrido[3,4-b]pyridinecarboxamide]
18 | 2.5 | CN(Cc1cc(C(F)(F)F)cc(C(F)(F)F)c1)C(=O)c1c(-c2cccs2)c2ccccc2c(=O)n1C [Example 21, N[3,5-Bis(trifluoromethyl)benzyl]-1,2-dihydro-N, 2-dimethyl-1-oxo-4-(2-thienyl)-3-isoquinolinecarboxamide]
19 | 2.1 | CN1CCc2c(c(-c3ccc(F)cc3)c(C(=O)N(C)Cc3cc(C(F)(F)F)cc(C(F)(F)F)c3)n(C)c2=O)C1 [Example 34, N-[3,5-Bis(trifluoromethyl)benzyl]-4-(4-fluorophenyl)-1,2,5,6,7,8-hexahydro-N,2,6-trimethyl-1-oxo-3-pyrido [4,3-c]pyridinecarboxamide]
20 | 1.8 | CN(Cc1cc(C(F)(F)F)cc(C(F)(F)F)c1)C(=O)c1c(-c2ccc(F)cc2)c2ncsc2c(=O)n1C [Example 40, N-[3,5-Bis(trifluoromethyl)benzyl]-7-(4-fluorophenyl)-4,5-dihydro-N, 5-dimethyl-4-oxo-6-thiazolo[5,4-c]pyridinecarboxamide]
21 | 1.2 | CN(Cc1cc(C(F)(F)F)cc(C(F)(F)F)c1)C(=O)c1c(-c2ccc(F)cc2)c2cnccc2c(=O)n1C [Example 9, N-[3,5-Bis(trifluoromethyl)benzyl]-4-(4-fluorophenyl)-1,2-dihydro-N, 2-dimethyl-1-oxo-3-pyrido[4,3-c]pyridine carboxamide]
22 | 0.7 | CN(Cc1cc(C(F)(F)F)cc(C(F)(F)F)c1)C(=O)c1c(-c2ccccc2)c2c(c(=O)n1C)NCCC2 [Example 55, N-[3,5-Bis(trifluoromethyl)benzyl]-1,2,3,4,7,8-hexahydro-5-phenyl-N,7-dimethyl-8-oxo-6-pyrido[3,4-b]pyridinecarboxamide]
23 | 0.62 | CN(Cc1cc(C(F)(F)F)cc(C(F)(F)F)c1)C(=O)c1c(-c2ccccc2)c2ccncc2c(=O)n1C [Example 37, N-[3,5-Bis(trifluoromethyl)benzyl]-1,2-dihydro-N, 2-dimethyl-1-oxo-4-phenyl-3-pyrido[3,4-c]pyridinecarboxamide]
24 | 0.6 | CN(Cc1cc(C(F)(F)F)cc(C(F)(F)F)c1)C(=O)c1c(-c2ccc(F)cc2)c2ccc[n+](C)c2c(=O)n1C [Example 29, 6-[N-[3,5-Bis(trifluoromethyl)benzyl]-N-methylaminocarbonyl]-5-(4-fluorophenyl)-7,8-dihydro-1,7-dimethyl-8-oxopyrido[3,4-b]pyridinium iodide]
25 | 0.35 | CN(Cc1cc(C(F)(F)F)cc(C(F)(F)F)c1)C(=O)c1c(-c2ccc(F)cc2)c2ccc(=O)n(C)c2c(=O)n1C [Example 35, N-[3,5-Bis(trifluoromethyl)benzyl]-5-(4-fluorophenyl)-1,2,7,8-tetrahydro-N,1,7-trimethyl-2,8-dioxo-6-pyrido [3,4-b]pyridinecarboxamide]
26 | 0.2 | N-[3,5-Bis(trifluoromethyl)benzyl]-5-(chloro-2-methylphenyl)-7,8-dihydro-N,7-dimethyl-8-oxo-6-pyrido[3,4-b]pyridinecarboxamide and its isomer [Example 11]
27 | 0.048 | CN1CCc2c(-c3ccc(F)cc3)c(C(=O)N(C)Cc3cc(C(F)(F)F)cc(C(F)(F)F)c3)n(C)c(=O)c2C1 [Example 32, N-[3,5-Bis(trifluoromethyl)benzyl]-4-(4-fluorophenyl)-1,2,5,6,7,8-hexahydro-N,2,7-trimethyl-1-oxo-3-pyrido[3,4-c]pyridinecarboxamide]
